Results published in PMC10005222, “Development of a Novel Apigenin Dosage form as a Substitute for the Modern Triple Antithrombotic Regimen” (Molecules, 2023).

Assays:
[1] = tested on: AA-induced platelet aggregation; assay: AA-induced platelet aggregation in PRP (light transmittance aggregometry); assay type: cell-based, human; settings: for IC50: Homo sapiens, AA 500 μM, PRP, 1 min pre-incubation, mean ± SD, three platelet preparations
Method: (§1) The antiplatelet activity of DHA-apigenin, apigenin, DHA, and equimolar solution of apigenin/DHA was studied in platelet rich plasma (PRP) by light transmittance aggregometry (LTA) assay, as previously described. Briefly, PRP was prepared from peripheral venous blood of apparently healthy normolipidemic volunteers. The platelets of PRP were adjusted to a final concentration of 2.5 × 10^8 per Ml with homologous platelet-poor plasma (PPP). The PRP was then pre-incubated with each one of the compounds for 1 min before the initiation of aggregation. The final DMSO concentration in each assay was <0.5% (v/v). In the control experiments, the PRP was incubated with each one of the compounds for 5 min in order to evaluate whether each tested compound was a platelet activator. Platelet aggregation induced by ADP (10 Μm), AA (500 Μm), and TRAP-6 (10 Μm) was determined in aliquots of 0.5 Ml of PRP, at 37 °C under continuous stirring at 1200 rpm, in a Chronolog Lumi-Aggregometer (model 700 4-channel) equipped with the AggroLink software package. The maximal aggregation, achieved within 4 min after the addition of each agonist, was determined and expressed as a percentage of 100% light transmission calibrated for each specimen (maximal percentage of aggregation; MPA). Τhe inhibitory efficacy of each compound tested was also expressed as IC50 values (concentration that induces 50% inhibition of platelet aggregation). All aggregation studies were conducted within 3 h after blood was drawn. The inhibition of platelet aggregation (IPA) values induced by each compound was calculated using the […].

[2] = tested on: ADP-induced platelet aggregation; assay: ADP-induced platelet aggregation in PRP (light transmittance aggregometry); assay type: cell-based, human; settings: for IC50: Homo sapiens, ADP 10 μM, PRP, 1 min pre-incubation, mean ± SD, three platelet preparations
Method: as §1

[3] = tested on: TRAP-6-induced platelet aggregation; assay: TRAP-6-induced platelet aggregation in PRP (light transmittance aggregometry); assay type: cell-based, human; settings: for IC50: Homo sapiens, TRAP-6 10 μM, PRP, 1 min pre-incubation, mean ± SD, three platelet preparations; for enhanced inhibitory activity with respect to DHA: TRAP-6 induced platelet aggregation
Method: as §1

[4] = Human plasma stability assay (LC-MS/MS); assay type: in vitro ADME; settings: 37 °C
Method: Liquid chromatography was performed using an Advance Ultra High Performance Liquid Chromatography (UHPLC) system (Bruker, Germany). The column oven was set at 40 °C. For the separation, a Kinetex C18 column 100 mm × 2.1 mm, 2.6 μm, with a 2.1 mm pro-guard column, was used (Phenomenex). The mobile phases were composed of water (LC-MS grade) with formic acid 0.1% (A) and MeOH (B). The gradient followed at a constant flow of […] was: initial phase (B) concentration 5%, increased to 100% within 1 min, then kept constant for 5.5 min, and reduced to 5% until the end of the run. […] The injection volume was 2 μL, while the auto-sampler temperature was 15 °C.
For the detection of the conjugate, the EVOQ Elite ER TQ (Bruker) mass spectrometer was operated in negative ionization electrospray mode (ESI) under multiple reaction monitoring (MRM). […] Optimum ESI conditions were determined as follows: spray voltage, 4500 V; heated probe gas flow, 50 units; heated probe temperature 350℃; cone gas flow, 20 units; cone temperature, 200 °C; nebulizer gas flow, 40 units. Total control of LC and MS, as well as data acquisition, were performed with MSWS software, Version 8.2.1 (Bruker). […]
The in vitro stability of the apigenin molecular hybrid was evaluated in human plasma (Ph was adjusted to 7.4) at 37 °C. […]

[5] = Serum pharmacokinetics after oral administration in C57BL/6J mice; assay type: in vivo; settings: oral 50 mg/kg in olive oil; for Tmax / half-life / AUC(0-t) / Vd/F / Cmax / AUC(0-inf): male, mouse; for AUC(0-t): 0-6 h, read-out: AUC0−t, Estimate (%CV); for Vd/F / Cl/F: normalized to fraction absorbed; for Vd/F: read-out: Vz/F; for Cmax: read-out: Cmax, Estimate (%CV); for AUC(0-inf): to be considered with caution (high extrapolation); for AUC % extrapolated: based on λz, 50 mg/kg
Method: For the detection of the conjugate, the EVOQ Elite ER TQ (Bruker) mass spectrometer was operated in negative ionization electrospray mode (ESI) under multiple reaction monitoring (MRM). […] Optimum ESI conditions were determined as follows: spray voltage, 4500 V; heated probe gas flow, 50 units; heated probe temperature 350℃; cone gas flow, 20 units; cone temperature, 200 °C; nebulizer gas flow, 40 units. Total control of LC and MS, as well as data acquisition, were performed with MSWS software, Version 8.2.1 (Bruker). For the pharmacokinetic studies, a Xevo-G2-XS-QtoF mass spectrometer, coupled to a Waters UPLC I-Class Binary Solvent Manager (Waters Corp., Milford, MA, USA) was used. The mobile phases were composed of water (LC-MS grade) with formic acid 0.1% (A), and acetonitrile (LC-MS grade) with formic acid 0.1% (B). A constant flow of […] was used, with an injection volume of 1 μL; the gradient was as follows: initial phase (B) concentration 20%, increased to 100% within 1.5 min, then kept constant for 1 min, and reduced to 20% until the end of the run (4 min total runtime). The MS conditions were as follows: the scan range was set at m/z 100–600, and the source voltage was 0.8 Kv in negative ionization electrospray mode (ESI). The source temperature was 550 °C, the flow of desolvation gas (N2) was set to 1000 L per hour, and the cone gas flow was set to 20 L per hour. For MS/MS, the collision energy ramp was set from 20 eV to 40 eV, and the declustering potential was 40 V. The column used was the Acquity UPLC® BEH C18 1.7 µm device. For the post processing and analysis of the acquisition data, UNIFY soFTware was used.
60 male 8-week-old C57BL/6J wild type mice, with mean weight equal to 23.5 ± 2.1 g were randomly divided in two groups (a, b) of 30 and each one received different treatment as follows: (a) the apigenin hybrid formulation and (b) the parent apigenin, dissolved in extra virgin olive oil, orally via the gavage technique at the dose of 50 mg/kg. Mice in each group were randomly further divided in 6 subgroups of five, each group representing one sampling time point (15, 30, 60, 120, 240, and 360 min). Animals were anaesthetized with sevoflurane, and sacrificed to collect blood samples via cardiac puncture, in non-heparinized Eppendorf ® Tubes, at the time point of interest after administration. Blood samples were centrifuged (10,000× g rpm, 15 min, 4 °C), and serum was collected, frozen and stored at −70 °C until further processing. In order to quench the reactions, 395 μL of MeOH were added to each sample, along with IS (5 μL of Rosmarinic acid). The samples were vortexed and centrifuged at 10,000× g for 10 min. Then, the supernatant was taken, filtered and transferred to vials for analysis, as described above.
The Phoenix^TM (www.certara.com)®. software was used for data analysis using non-compartmental PK analysis (NCA). More specifically, sparse sampling NCA was performed to determine basic serum PK parameters, namely AUC0−t, AUCinf, Cmax and Tmax, and to calculate the relative oral bioavailability of apigenin after apigenin hybrid formulation and native apigenin oral administration. To calculate the PK parameters and their standard errors (SE), the mean concentration curve is calculated and used in conjunction with the available subject information. The log-linear trapezoidal method was used to calculate AUC0−t and AUCinf, with extrapolation to infinity by dividing the last concentration by the terminal slope, λz (kel, estimated by linear regression analysis on the last three points of the log-transformed concentration vs. time plot).

[6] = ADP-induced platelet aggregation

SMILES	IC50 [1] [µM]	IC50 [2] [µM]	IC50 [3] [µM]	Tmax [5] [h]	half-life [5] [h]	AUC(0-t) [5] [ng·h/mL]	Vd/F [5] [L]	Cmax [5] [ng/mL]	AUC(0-inf) [5] [ng·h/mL]	Cl/F [5] [L/h]	further results
CC/C=C\C/C=C\C/C=C\C/C=C\C/C=C\C/C=C\CCC(=O)O [DHA, Cis-4,7,10,13,16,19-Docosahexanoic acid, reference compound]	130 ± 18	920 ± 53	680 ± 42	–	–	–	–	–	–	–	–
CC/C=C\C/C=C\C/C=C\C/C=C\C/C=C\C/C=C\CCC(=O)Oc1ccc(-c2cc(=O)c3c(O)cc(O)cc3o2)cc1 [4′-DHA-apigenin hybrid, 4′-DHA-apigenin]	353 ± 36	362 ± 20	52 ± 12	2	17.4	91.7	66.5	17.8	471	2.65	enhanced inhibitory activity with respect to apigenin ([1]; AA-induced platelet aggregation): 2 fold; enhanced inhibitory activity with respect to DHA [2, 6]: ~3 fold; enhanced inhibitory activity with respect to apigenin [2, 6]: ~2 fold; enhancement with respect to native apigenin ([3]; TRAP-6): 2 fold; enhanced inhibitory activity with respect to DHA [3]: more than 12 fold; enhanced inhibitory activity with respect to DHA ([3]; listed as 4′-DHA-apigenin): 12 fold; parent compound still present ([4]; after 30 min of incubation): 17.3%; half-life at 5 µM ([4]; pH 7.4, read-out: t1/2 in human plasma): ~0.217 h; AUC % extrapolated ([5]; listed as 4′-DHA-Apigenin): 80%; AUC % extrapolated ([5]; listed as 4′-DHA-apigenin): 80.5%
O=c1cc(-c2ccc(O)cc2)oc2cc(O)cc(O)c12 [Apigenin, apigenin]	850 ± 45	607 ± 35	56 ± 8	2	3.44	35	106	10.8	58.8	21.3	AUC % extrapolated [5]: 40%; AUC % extrapolated ([5]; listed as native apigenin): 40.5%
